Patent publication US6387388B1, “Pesticidal formulation” (Merck & Co., Inc., priority 1995, dated 2002)
Entries after “also recorded” stand apart in the source; their conditions may differ.

What was measured:
[1] = test system: tomato fruitworm (Helicoverpa zea); test: Field efficacy study, weekly foliar sprays on tomato; format: in vivo
Description: ‘Roma’ tomato transplants were planted in the field on June 10. Each plot was one row (5 ft centers) by 20 feet (=0.0022957 acre). Plots were separated within rows by at least 6 feet of unplanted ground and across rows by 24 feet. A single row of sweet corn (‘Silver Queen’) was planted mid-way between rows. Weeds are allowed to grow in the ground between the tomato and sweet corn rows, but were kept mowed. Weeds were controlled within tomato rows by a single application of Sencor 75 DF applied as a directed spray at the rate of 0.5 lb a.i./acre on June 20. Foliar applications of Dithane M45 at 1.5 lb a.i./acre were made every 5 days beginning July 1 and continuing through harvest for control of foliar diseases. In addition, calcium nitrate at 4 lb/acre was applied on July 10, 17, 24 and 31 for control of blossom-end rot. All insecticide treatments were applied as foliar sprays on July 23, 30, August 6, and 13. Applications were made using a CO2-powered, backpack sprayer calibrated to deliver 55 gallons of spray per acre at 42 psi. […]
The experimental treatments were replicated 4 times in a randomized complete block experimental design. The incidence of fruitworm damage to the fruit was determined in each plot on August 11, when the first fruit reached market maturity, and again on August 16. […]

[2] = soluble in 1 liter of water; cited from earlier work
eye of a rabbit = test: Neat emamectin benzoate, acute ocular irritation study in rabbits; format: in vivo, albino rabbits (New Zealand white)
Protocol: Three male and three female albino rabbits (New Zealand white) 25 to 26 weeks of age and weighing 3.23 to 3.66 kg was used in this study. The test compound was ground into a fine powder and a volume of 0.1 cc (approximately 28 mg) was placed in the conjunctival sac of the left eye of each rabbit. Immediately after administration, the eyelids of the treated eye were held together for one second to prevent loss of material and released. The right eye was used as an untreated control.
Ocular examinations were made recorded at 1, 24, 48 and 72 hours post-instillation in all rabbits and were scored by the Draize Method (J. Pharmacol. Exp. Therap. 82:377-390 (1944)). Because of severe ocular reactions, three rabbits were euthanized following the 72-hour reading. Scores were recorded for the three remaining rabbits once daily through 14 days post-instillation except on weekends.

Molecule: CC1(C)[C@H](C(=O)O[C@H](C#N)c2cccc(Oc3ccccc3)c2)[C@@H]1/C=C(\Cl)C(F)(F)F (racemic) [lambda-cyhalothrin]
- overall mean percentage of damaged fruit ([1]; foliar): 1.0%

Molecule: COP(=O)(NC(C)=O)SC (stereo not drawn) [acephate]
- amount soluble in water [2]: 650 g

Molecule: CC(C)[C@H](C(=O)O[C@H](C#N)c1cccc(Oc2ccccc2)c1)c1ccc(Cl)cc1 [esfenvalerate]
- overall mean percentage of damaged fruit ([1]; tomato, Asana XL 0.66 EC at 0.036 lb active ingredient per acre, applied weekly, untreated control 18.5%): 0.0%

Molecule: benzoate salt of 4″-deoxy-4″-epi-methylamino avermectin B1a/B1b [emamectin benzoate]
- ocular irritation rating (eye of a rabbit; 0.1 cc (approximately 28 mg) fine powder in conjunctival sac, six rabbits, listed as neat emamectin benzoate): severely irritating; also recorded: severe, irreversible eye irritant
- ocular reactions in the three rabbits euthanized early, through 72 hours (eye of a rabbit; approximately 28 mg in conjunctival sac): chemosis became severe
- ocular reactions at one hour (eye of a rabbit; approximately 28 mg in conjunctival sac, six rabbits, listed as neat emamectin benzoate): the eyes of four rabbits had congestion of the iris; also recorded: corneal anesthesia and conjunctival irritation; also recorded: moderate redness, slight or moderate chemosis and severe colorless discharge
- ocular reactions at 24 hours (eye of a rabbit; approximately 28 mg in conjunctival sac, listed as neat emamectin benzoate): an additional rabbit had congestion of the iris; also recorded: very slight corneal opacity covering less than ¼ of the corneal surface; also recorded: corneal anesthesia was still present, redness was severe, chemosis was never more than moderate
- body weight loss (eye of a rabbit; rabbits euthanized early): less than 7%
- corneal anesthesia lasted through (eye of a rabbit; two of the three remaining rabbits): 72 h
